In patent US9521846B2, “Template-fixed peptidomimetics with antimicrobial activity” (priority 2006, dated 2016):
In brackets after ≈: the same amount, converted by molar mass. Non-standard residues stand in square brackets, D forms with d. Residues, ends and D or L forms follow the SMILES beside them. Ala(cPr) = N[C@@H](CC1CC1)C(=O)O; dDab = NCC[C@@H](N)C(=O)O; Orn = NCCC[C@H](N)C(=O)O; Dab = NCC[C@H](N)C(=O)O

Experiments:
P. aeruginosa ATCC 27853 = assay type: cell-based, Pseudomonas aeruginosa; details: ATCC 27853
Method in brief: (§1)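 Inoculum standardised to 0.5 McFarland (approx. 10^6 CFU/ml) in Mueller-Hinton + 0.02% BSA was combined equally with serially halved peptide concentrations in the same medium, per a modified NCCLS microdilution procedure.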

[1] = system: human red blood cells (hRBC); experiment: Hemolysis; assay type: cell-based; details: 100
HELA cells (Acc57) = experiment: Cytotoxicity assay, MTT reduction (LC 50, GI 50); assay type: cell-based
Method in brief: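 Read-out was MTT reduction (A595) after 48 h peptide exposure (12.5–50 μM, triplicates) of HeLa cells plated at 7.0×10^3/well and precultured 24 h. Growth % was normalised to a time-zero reading. Linear trend interpolation gave the concentration at −50% growth (LC50) and at 50% growth (GI50).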

[2] = system: Pseudomonas aeruginosa P1021913; assay type: cell-based; details: P1021913
Method in brief: as §1

[3] = system: Pseudomonas aeruginosa P1021903; assay type: cell-based; details: P1021903
Method in brief: as §1

[4] = system: Pseudomonas aeruginosa P8191900; assay type: cell-based; details: P8191900
Method in brief: as §1

[5] = system: Pseudomonas aeruginosa IMP 1 Livermore 3140; assay type: cell-based; details: IMP 1 Livermore 3140
Method in brief: as §1

Row | MIC P. aeruginosa ATCC 27853 (P. aeruginosa ATCC 27853) | Average MIC (P. aeruginosa) | MIC P. aeruginosa P1021913 [2] | MIC P. aeruginosa P1021903 [3] | MIC P. aeruginosa P8191900 [4] | MIC P. aeruginosa IMP1 Livermore 3140 [5] | Compound | Hemolysis at 100 μg/ml [1] | Cytotoxicity GI50 Hela cells (HELA cells (Acc57))
1 | 0.09 mg/L (≈ 0.0569 µM) | 0.6 mg/L | 0.31 mg/L (≈ 0.196 µM) | 0.30 mg/L (≈ 0.19 µM) | 0.30 mg/L (≈ 0.19 µM) | 2.0 mg/L (≈ 1.27 µM) | CC[C@H](C)[C@@H]1NC(=O)[C@H](Cc2c[nH]c3ccccc23)NC(=O)[C@H]([C@@H](C)O)NC(=O)[C@@H]2CCCN2C(=O)[C@H]2CCCN2C(=O)[C@H](CCN)NC(=O)[C@@H](C)NC(=O)[C@H](CCN)NC(=O)[C@H](CCN)NC(=O)[C@H](Cc2c[nH]c3ccccc23)NC(=O)[C@H](CCN)NC(=O)[C@H](CCN)NC(=O)[C@H](CCCCN)NC(=O)[C@H](CCN)NC1=O [Example 3] (cyclo(TWI[Dab]K[Dab][Dab]W[Dab][Dab][dA][Dab][dP]P)) | 0.6% | 34 µM
2 | 0.06 mg/L (≈ 0.037 µM) | 0.42 mg/L | 0.37 mg/L (≈ 0.228 µM) | 0.31 mg/L (≈ 0.191 µM) | 0.18 mg/L (≈ 0.111 µM) | 1.17 mg/L (≈ 0.722 µM) | CC[C@H](C)[C@@H]1NC(=O)[C@H](Cc2c[nH]c3ccccc23)NC(=O)[C@H]([C@@H](C)O)NC(=O)[C@@H]2CCCN2C(=O)[C@H]2CCCN2C(=O)[C@H](CCN)NC(=O)[C@H](CC2CC2)NC(=O)[C@H](CCN)NC(=O)[C@H](CCN)NC(=O)[C@H](Cc2c[nH]c3ccccc23)NC(=O)[C@H](CCN)NC(=O)[C@H](CCN)NC(=O)[C@H](CCCCN)NC(=O)[C@H](CCN)NC1=O [Example 37] (cyclo(TWI[Dab]K[Dab][Dab]W[Dab][Dab][Ala(cPr)][Dab][dP]P)) | 0.5% | 50 µM
3 | 0.21 mg/L (≈ 0.128 µM) | 0.40 mg/L | 0.31 mg/L (≈ 0.189 µM) | 0.40 mg/L (≈ 0.244 µM) | 0.30 mg/L (≈ 0.183 µM) | 0.75 mg/L (≈ 0.458 µM) | CC[C@H](C)[C@@H]1NC(=O)[C@H](Cc2c[nH]c3ccccc23)NC(=O)[C@H]([C@@H](C)O)NC(=O)[C@@H]2CCCN2C(=O)[C@H]2CCCN2C(=O)[C@H](CCN)NC(=O)[C@H](CCC(N)=O)NC(=O)[C@H](CCN)NC(=O)[C@H](CCN)NC(=O)[C@H](Cc2c[nH]c3ccccc23)NC(=O)[C@H](CCN)NC(=O)[C@H](CCN)NC(=O)[C@H](CCCCN)NC(=O)[C@H](CCN)NC1=O [Example 13] (cyclo(TWI[Dab]K[Dab][Dab]W[Dab][Dab]Q[Dab][dP]P)) | 0.4% | 50 µM
4 | 0.03 mg/L (≈ 0.0193 µM) | 0.17 mg/L | 0.25 mg/L (≈ 0.161 µM) | 0.03 mg/L (≈ 0.0193 µM) | 0.06 mg/L (≈ 0.0386 µM) | 0.50 mg/L (≈ 0.322 µM) | CC[C@H](C)[C@@H]1NC(=O)[C@H](Cc2c[nH]c3ccccc23)NC(=O)[C@H]([C@@H](C)O)NC(=O)[C@@H]2CCCN2C(=O)[C@H]2CCCN2C(=O)[C@H](CO)NC(=O)[C@H](C)NC(=O)[C@H](CCN)NC(=O)[C@H](CCN)NC(=O)[C@H](Cc2c[nH]c3ccccc23)NC(=O)[C@H](CCN)NC(=O)[C@@H](CCN)NC(=O)[C@H](CCCN)NC(=O)[C@H](CCN)NC1=O [Example 49] (cyclo(TWI[Dab][Orn][dDab][Dab]W[Dab][Dab]AS[dP]P)) | 0.1% | 50 µM
5 | 0.08 mg/L (≈ 0.0497 µM) | 0.22 mg/L | 0.18 mg/L (≈ 0.112 µM) | 0.13 mg/L (≈ 0.0808 µM) | 0.30 mg/L (≈ 0.186 µM) | 0.40 mg/L (≈ 0.249 µM) | CC[C@H](C)[C@@H]1NC(=O)[C@H](Cc2c[nH]c3ccccc23)NC(=O)[C@H]([C@@H](C)O)NC(=O)[C@@H]2CCCN2C(=O)[C@H]2CCCN2C(=O)[C@H](CCN)NC(=O)[C@H](C)NC(=O)[C@H](CCN)NC(=O)[C@H](CCN)NC(=O)[C@H](Cc2c[nH]c3ccccc23)NC(=O)[C@H](CCCCN)NC(=O)[C@H](CCN)NC(=O)[C@H](CCCCN)NC(=O)[C@H](CCN)NC1=O [Example 26] (cyclo(TWI[Dab]K[Dab]KW[Dab][Dab]A[Dab][dP]P)) | 0.8% | 50 µM

More lines, now with the values behind:

Row | Compound | MIC P. aeruginosa ATCC 27853 (P. aeruginosa ATCC 27853) | Average MIC (P. aeruginosa) | MIC P. aeruginosa P1021913 [2] | MIC P. aeruginosa P1021903 [3] | MIC P. aeruginosa P8191900 [4] | MIC P. aeruginosa IMP1 Livermore 3140 [5] | Hemolysis at 100 μg/ml [1] | Cytotoxicity GI50 Hela cells (HELA cells (Acc57))
6 | CC[C@H](C)[C@@H]1NC(=O)[C@H](Cc2c[nH]c3ccccc23)NC(=O)[C@H]([C@@H](C)O)NC(=O)[C@@H]2CCCN2C(=O)[C@H]2CCCN2C(=O)[C@H](CCN)NC(=O)[C@H]([C@@H](C)CC)NC(=O)[C@H](CCN)NC(=O)[C@H](CCN)NC(=O)[C@H](Cc2c[nH]c3ccccc23)NC(=O)[C@H](CCN)NC(=O)[C@H](CCN)NC(=O)[C@H](CCCCN)NC(=O)[C@H](CCN)NC1=O [Example 8] (cyclo(TWI[Dab]K[Dab][Dab]W[Dab][Dab]I[Dab][dP]P)) | 0.05 mg/L (≈ 0.0308 µM) | 0.23 mg/L | 0.31 mg/L (≈ 0.191 µM) | 0.18 mg/L (≈ 0.111 µM) | 0.18 mg/L (≈ 0.111 µM) | 0.43 mg/L (≈ 0.265 µM) | 0% | 50 µM
7 | CC[C@H](C)[C@@H]1NC(=O)[C@H](Cc2ccc(O)cc2)NC(=O)[C@H](CC(=O)O)NC(=O)[C@@H]2CCCN2C(=O)[C@H]2CCCN2C(=O)[C@H](CCN)NC(=O)[C@H](C)NC(=O)[C@H](CCN)NC(=O)[C@H](CCN)NC(=O)[C@H](Cc2c[nH]c3ccccc23)NC(=O)[C@H](CCN)NC(=O)[C@@H](CCN)NC(=O)[C@H](CCCN)NC(=O)[C@H](CCN)NC1=O [Example 43] (cyclo(DYI[Dab][Orn][dDab][Dab]W[Dab][Dab]A[Dab][dP]P)) | 0.13 mg/L (≈ 0.0834 µM) | 0.95 mg/L | 2.00 mg/L (≈ 1.28 µM) | 0.125 mg/L (≈ 0.0802 µM) | 0.50 mg/L (≈ 0.321 µM) | 2.00 mg/L (≈ 1.28 µM) | 0.5% | 50 µM
8 | CC[C@H](C)[C@@H]1NC(=O)[C@H](Cc2c[nH]c3ccccc23)NC(=O)[C@H]([C@@H](C)O)NC(=O)[C@@H]2CCCN2C(=O)[C@H]2CCCN2C(=O)[C@H](CCN)NC(=O)[C@H](CC(N)=O)NC(=O)[C@H](CCN)NC(=O)[C@H](CCN)NC(=O)[C@H](Cc2c[nH]c3ccccc23)NC(=O)[C@H](CCN)NC(=O)[C@H](CCN)NC(=O)[C@H](CCCCN)NC(=O)[C@H](CCN)NC1=O [Example 38] (cyclo(TWI[Dab]K[Dab][Dab]W[Dab][Dab]N[Dab][dP]P)) | 0.09 mg/L (≈ 0.0554 µM) | 0.35 mg/L | 0.27 mg/L (≈ 0.166 µM) | 0.17 mg/L (≈ 0.105 µM) | 0.17 mg/L (≈ 0.105 µM) | 1.06 mg/L (≈ 0.653 µM) | 0.5% | 50 µM
9 | CC[C@H](C)[C@@H]1NC(=O)[C@H](Cc2c[nH]c3ccccc23)NC(=O)[C@H]([C@@H](C)O)NC(=O)[C@@H]2CCCN2C(=O)[C@H]2CCCN2C(=O)[C@H](CCN)NC(=O)[C@H](C)NC(=O)[C@H](CCN)NC(=O)[C@H](CCN)NC(=O)[C@H](Cc2ccc(O)cc2)NC(=O)[C@H](CCN)NC(=O)[C@H](CCN)NC(=O)[C@H](CCCCN)NC(=O)[C@H](CCN)NC1=O [Example 20] (cyclo(TWI[Dab]K[Dab][Dab]Y[Dab][Dab]A[Dab][dP]P)) | 0.21 mg/L (≈ 0.135 µM) | 0.48 mg/L | 0.31 mg/L (≈ 0.199 µM) | 0.21 mg/L (≈ 0.135 µM) | 0.40 mg/L (≈ 0.257 µM) | 1.25 mg/L (≈ 0.802 µM) | 0.2% | 50 µM
10 | CC[C@H](C)[C@@H]1NC(=O)[C@H](Cc2c[nH]c3ccccc23)NC(=O)[C@H]([C@@H](C)O)NC(=O)[C@@H]2CCCN2C(=O)[C@H]2CCCN2C(=O)[C@H](CCN)NC(=O)[C@@H](C(C)C)NC(=O)[C@H](CCN)NC(=O)[C@H](CCN)NC(=O)[C@H](Cc2c[nH]c3ccccc23)NC(=O)[C@H](CCN)NC(=O)[C@H](CCN)NC(=O)[C@H](CCCCN)NC(=O)[C@H](CCN)NC1=O [Example 4] (cyclo(TWI[Dab]K[Dab][Dab]W[Dab][Dab][dV][Dab][dP]P)) | 0.75 mg/L (≈ 0.466 µM) | >1 mg/L | 2.50 mg/L (≈ 1.55 µM) | 1.50 mg/L (≈ 0.932 µM) | 1.50 mg/L (≈ 0.932 µM) | >2.0 mg/L | 0.6% | 40 µM
11 | CC[C@H](C)[C@@H]1NC(=O)[C@H](Cc2c[nH]c3ccccc23)NC(=O)[C@H](CCC(=O)O)NC(=O)[C@@H]2CCCN2C(=O)[C@H]2CCCN2C(=O)[C@H](CCN)NC(=O)[C@H](C)NC(=O)[C@H](CCN)NC(=O)[C@H](CCN)NC(=O)[C@H](Cc2c[nH]c3ccccc23)NC(=O)[C@H](CCN)NC(=O)[C@@H](CCN)NC(=O)[C@H](CCCN)NC(=O)[C@H](CCN)NC1=O [Example 47] (cyclo(EWI[Dab][Orn][dDab][Dab]W[Dab][Dab]A[Dab][dP]P)) | 0.09 mg/L (≈ 0.0564 µM) | 0.32 mg/L | 0.50 mg/L (≈ 0.314 µM) | 0.13 mg/L (≈ 0.0815 µM) | 0.13 mg/L (≈ 0.0815 µM) | 0.75 mg/L (≈ 0.47 µM) | 0.2% | 50 µM
